# In patent US20080145313A1, “Compositions and Methods for the Treatment and Prevention of Neoplastic Disorders” (Genesis Research & Development Corporation Limited, priority 2006, published 2008):
# Experiments:
# A549 xenograft tumor = test: Xenograft tumor growth of A549 cells transfected with siRNA pre-implantation in CD-1 nude mice; format: in vivo, mouse; settings: for tumor growth inhibition compared to the control groups: cells transfected pre-implantation, monitored 33 or 26 days; for tumor growth rate compared to control groups: A549 cells transfected with siRNA before s.c. inoculation
# Description: To determine the effect of RRM1 knockdown on tumor growth, A549 cells (human lung cancer cell line; ATCC No. CCL-185) were reverse-transfected prior to implantation in CD-1 nude mice. In 175 cm^2 culture flasks, 10×10^6 A549 cells (in RPMI supplemented with 10% fetal calf serum) were added to pre-made lipoplexes. To make lipoplexes, Lipofectamine RNAiMAX in serum-free RPMI was added to an equal volume of serum-free RPMI containing siRNA (RRM1-2; SEQ ID NO: 4831 (DNA), and SEQ ID NO: 5137 (RNA)) and a control siRNA (SEQ ID NO: 4804 (DNA), and SEQ ID NO: 5301 (RNA)). After addition of cells, the final concentration of siRNA in the flask was 10 nM. Untransfected cells served as a further control. Flasks were incubated at 37° C. for 24 h to allow transfection to proceed.
# The cells were harvested by trypsinization 24 h after the transfection, washed twice in PBS and viable cells were counted. Equal numbers of cells (1×10^7) were inoculated into CD-1 nude mice (n=7-9). Briefly, 5 to 7 weeks old nude mice were subcutaneously (s.c.) injected in the right flank with A549 cells in 100 μl PBS. Tumor growth was monitored 3 times per week by measuring tumor sizes using a digital caliper. Tumor volume was expressed in […] using the formula: V=a^2×b×0.52, where a and b represent the minimum and maximum tumor diameter, respectively. Mean tumor volumes calculated from each measurement were then plotted in a standard graph to compare the tumor growth of transfected cells to that of control.
# To determine the effect of siRNA-mediated knockdown of HK-II, CAD, IMPDH2, RRM2, SLC16A1 and SLC29A1 on tumor growth, A549 cells (human lung cancer cell line; ATCC No. CCL-185) were reverse-transfected prior to implantation in CD-1 nude mice as described above with siRNAs given in SEQ ID NO: 5307 (DNA), and SEQ ID NO: 5304 (RNA) for RRM2, SEQ ID NO: 4932 (DNA), and SEQ ID NO: 5227 (RNA) for ENT1, SEQ ID NO: 4813 (DNA), and SEQ ID NO: 5119 (RNA) for HK-II, SEQ ID NO: 4827 (DNA), and SEQ ID NO: 5133 (RNA) for CAD, SEQ ID NO: 4879 (DNA), and SEQ ID NO: 5182 (RNA) for IMPDH2 and SEQ ID NO: 4924 (DNA), and SEQ ID NO: 5219 (RNA) for SLC16A1, respectively. The siRNA given in SEQ ID NO: 4804 (DNA), and SEQ ID NO: 5301 (RNA) was used as control.
# In two separate experiments, CD-1 mice were divided into five groups that received untransfected A549 cells, cells transfected with control siRNA or three different siRNAs (as listed above), respectively. Cells were transfected in vitro using the method as described in Example 8, and 24 h after transfection, s.c. inoculated into mice. Tumor growth was measured 3 times per week. In the first experiment, mice received cells transfected with siRNA targeting RRM2, HK-II or SLC29A1 and were monitored for 33 days. In the second experiment, mice received cells transfected with siRNA targeting CAD, IMPDH2 or SLC16A1, and were monitored for 26 days. […] Similarly, preliminary data indicated tumor growth rate was reduced for the groups receiving cells transfected with siRNA targeting CAD and SLC16A1. Twenty-six days after cell inoculation, the tumor volume for mice with cells transfected with siRNA targeting CAD or SLC16A1 was 97.2±7.3 mm^3 or 110.1±28.1 mm^3, respectively.
# A549 cells = test: Growth inhibition of siRNA-transfected A549 cells, SYBR Green I DNA content; format: cell-based, human; settings: for Growth Inhibition in A549 cells / Growth Inhibition in A549 cells by 10 nM siRNA: 10 nM siRNA, DNA content 96 hours after transfection; for Growth Inhibition in A549 cells by 10 nM siRNA: transporter gene targets
# Procedure, shortened: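 A549 cells reverse-transfected with 10 nM Stealth siRNAs via Lipofectamine RNAiMAX, seeded at 5×10^3 cells/cm^2 in RPMI 1640/10% FCS; non-specific siRNA control. DNA content read 96 h post-transfection by SYBR Green I fluorescence (ex 485/em 535 nm) after freeze-thaw and Triton X-100 lysis; mean of three wells.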
# [1] = test system: target transcript mRNA in A549 cells; test: Level of mRNA of target transcript in A549 cells by quantitative RT-PCR (Tables 12 and 13); format: cell-based, human; settings: 24 h post-transfection; for mRNA knockdown of transporter gene target transcript, 0.1 nM: 0.1 nM siRNA; for mRNA knockdown of transporter gene target transcript, 1 nM: 1 nM siRNA
# Procedure, shortened: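 A549 cells were transfected with siRNA at 0.1, 1.0 and 10 nM. RNA was extracted 24 h later, reverse-transcribed with random primers, and target mRNA quantified by SYBR Green qRT-PCR. Values were normalised to housekeeping genes HPRT and Lamin.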
Substance,Growth Inhibition in A549 cells (A549 cells),"mRNA knockdown of transporter gene target transcript, 0.1 nM [1]","mRNA knockdown of transporter gene target transcript, 1 nM [1]",Growth Inhibition in A549 cells by 10 nM siRNA (A549 cells),also measured
"SEQ ID NO: 4879: siRNA targeting IMPDH2 (chain 1 AATACCGCCTGTAAGCGCCATTGCT; chain 2 AAUACCGCCUGUAAGCGCCAUUGCU; Both strands are one antisense strand in DNA/RNA notation, chemistry not given here, further chemistry not given here; one strand in two spellings)",++ (inhibits by at least 75%),,,,tumor growth inhibition compared to the control groups (A549 xenograft tumor): No tumor growth inhibition
SEQ ID NO: 4813: siRNA targeting HK-II (chain 1 AATGAGACCAATCTCACAGTTGTGG; chain 2 AAUGAGACCAAUCUCACAGUUGUGG; chemistry not given here; one strand in two spellings),++ (inhibits by at least 75%),,,,tumor growth inhibition compared to the control groups (A549 xenograft tumor): No tumor growth inhibition
"SEQ ID NO: 4831: Stealth siRNA targeting RRM1 (chain 1 TAGAAGTGCATACTAGTGAGTTTGC; chain 2 UAGAAGUGCAUACUAGUGAGUUUGC; Stealth siRNA, chemical pattern not given here; one strand in two spellings)",++ (inhibits by at least 75%),,,,"mice with measurable tumors (A549 xenograft tumor; A549 cells transfected with 10 nM siRNA 24 h before s.c. inoculation): two of eight; tumor growth rate compared to control groups (A549 xenograft tumor): reduced dramatically; average tumor size (A549 xenograft tumor; six weeks after the cell inoculation, 10 nM siRNA pre-implantation): 49.1±18.4 mm^3; growth inhibition, A549 (A549 cells; 0.1 nM siRNA, 96 h post-transfection, normalized to control siRNA): 50%"
SEQ ID NO: 4827: siRNA targeting CAD (chain 1 TTCAAGAGAATTTGCTGCCTCGCTC; chain 2 UUCAAGAGAAUUUGCUGCCUCGCUC; chemistry not given here; one strand in two spellings),+ (inhibits by at least 50%),,,,"tumor growth rate compared to control groups (A549 xenograft tumor): reduced; tumor volume (A549 xenograft tumor; twenty-six days after cell inoculation, preliminary data): 97.2±7.3 mm^3"
"SEQ ID NO: 4899: siRNA targeting SLC2A12 (GLUT12) (chain 1 TTAGCAAGGATGCTGAGGTCGTCTC; chain 2 UUAGCAAGGAUGCUGAGGUCGUCUC; Antisense strand given in DNA and RNA notation, chemistry not given here; one strand in two spellings)",,++ (70-90% mRNA knockdown),++ (70-90% mRNA knockdown),− (no growth inhibition),
SEQ ID NO: 4970: siRNA targeting ABCC4 (MRP4) (chain 1 AATCTTGGAAATCTCCTTCTTTCTC; chain 2 AAUCUUGGAAAUCUCCUUCUUUCUC; chemistry not given here; one strand in two spellings),,++ (70-90% mRNA knockdown),++ (70-90% mRNA knockdown),− (no growth inhibition),
SEQ ID NO: 4963: siRNA targeting ATP6V1F (chain 1 TAGCGCAGGTCTTCGGCAGTGAACA; chain 2 UAGCGCAGGUCUUCGGCAGUGAACA; chemistry not given here; one strand in two spellings),,++ (70-90% mRNA knockdown),++ (70-90% mRNA knockdown),− (no growth inhibition),
SEQ ID NO: 4956: siRNA targeting ATP6V1C1 (chain 1 TAGACTTCTAGTTAGCAAACTTCCT; chain 2 UAGACUUCUAGUUAGCAAACUUCCU; chemistry not given here; one strand in two spellings),,++ (70-90% mRNA knockdown),++ (70-90% mRNA knockdown),− (no growth inhibition),
"SEQ ID NO: 4896: siRNA targeting SLC2A5 (GLUT5) (chain 1 AAGTCTTCCATGAATTCACCGGTCC; chain 2 AAGUCUUCCAUGAAUUCACCGGUCC; Antisense strand given in DNA and RNA notation, chemistry not given here; one strand in two spellings)",,− (<50% mRNA knockdown),− (<50% mRNA knockdown),− (no growth inhibition),
